Consider four compounds from patent EP0018155A2, “Novel cephalosporin compounds, a process for the preparation thereof, pharmaceutical compositions containing the same and the use thereof as a therapeutic agent against a microorganism” (NOVO NORDISK A/S, priority 1979, dated 1980).

Values after ≈ are worked out from the molar mass of the structure shown. Like-named read-outs stand apart in the source and are kept apart here. Bounds are passed on as bounds.

What all share (format): cell-based
For test [1], the system named is S. albus 3348. The test can be described thus: agar serial dilution test (MIC). Here is the method: (§1) The antibiotic activity in vitro of some compounds according to the invention and of some previously known compounds was tested by means of an agar serial dilution test. The following compounds were tested: 7β-[2-(2-Aminothiazol-4-yl)-2-diethylphosphoryloxyiminoacetamido] cephalosporanic acid (designated ES 643, 7β-[2-(2-amino- thiazol-4-yl)-2-dimethylphosphoryloxyiminoacetamido] cephalosporanic acid (designated ES 671), 7β-[2-(2-amino- thiazol-4-yl)-2-dimorpholinophosphoryloxyiminoacetamido] cephalosporanic acid (designated ES 656), 7β-[2-(2-amino- thiazol-4-yl)-2-methylmethylphosphonyloxyiminoacetamido] cephalosporanic acid (designated ES 682), 7β-[2-(2-amino- thiazol-4-yl)-2-hydroxyiminoacetamido] cephalosporanic acid (designated A), cefuroxime (designated B), and cephalotin (designated C). MIC designates minimum inhibitory concentration.

Test [2] deals with E. coli 04. Kind of test: agar serial dilution test (MIC). Here is the method:
as §1

Test [3] has as its system S. albus 3578. The test can be described thus: agar serial dilution test (MIC). Here is the method: as §1
In test [4] the test system is K. pneumoniae K8. The test can be described thus: agar serial dilution test (MIC). The note with it: Klebsiella pneumoniae. Here is the method:
as §1

Test [5] relates to P. vulgaris 5209. The test can be described thus: agar serial dilution test (MIC). Here is the method: as §1
Test [6] relates to S. pyogenes 12384. The test can be described thus: agar serial dilution test (MIC). Here is the method: as §1
The subject of test [7] is P. vulgaris 17028. The test can be described thus: agar serial dilution test (MIC). Here is the method: as §1
Test [8] has as its system P. morganii 18. The test can be described thus: agar serial dilution test (MIC). Here is the method:
as §1

Test [9] concerns P. mirabilis 2311. Kind of test: agar serial dilution test (MIC). Here is the method: as §1
Test [10] deals with S. aureus 3349. The test can be described thus: agar serial dilution test (MIC). Here is the method:
as §1

Test [11] deals with S. aureus 3356. Kind of test: agar serial dilution test (MIC). Here is the method:
as §1

In test [12] the test system is S. aureus 209P. The test can be described thus: agar serial dilution test (MIC). Conditions: Staphylococcus aureus. Here is the method:
as §1

Test [13] deals with P. morganii 69. The test can be described thus: agar serial dilution test (MIC). Here is the method: as §1
For test [14], the system named is K. edwardsii K1. Kind of test: agar serial dilution test (MIC). Here is the method: as §1
For test [15], the system named is S. pyogenes 12334. Kind of test: agar serial dilution test (MIC). Here is the method: as §1
Test [16] concerns P. mirabilis 682. Kind of test: agar serial dilution test (MIC). Here is the method: as §1
For test [17], the system named is S. albus 12228. The test can be described thus: agar serial dilution test (MIC). Here is the method: as §1
Test [18] concerns P. mirabilis 2255. Kind of test: agar serial dilution test (MIC). Here is the method:
as §1

The test system of test [19] is P. vulgaris 16868. Kind of test: agar serial dilution test (MIC). Here is the method: as §1
The subject of test [20] is S. aureus 13709. The test can be described thus: agar serial dilution test (MIC). Here is the method: as §1
Test [21] deals with E. coli 01. Kind of test: agar serial dilution test (MIC). Here is the method:
as §1

In test [22] the test system is P. vulgaris ATCC 6897. Kind of test: MIC value stated in Example 8. Conditions: Proteus vulgaris, ATCC6897; against P. vulgaris ATCC 6897.
The mark [23] stands for this setting: Staphylococcus albus, 3348, read-out: MIC value in μg/ml.
Where [24] appears, read: Escherichia coli, 04, read-out: MIC value in μg/ml.
Setting [25] is: Staphylococcus albus, 3578, read-out: MIC value in μg/ml.
The mark [26] stands for this setting: K8, read-out: MIC value in μg/ml.
[27] abbreviates: Proteus vulgaris, 5209, read-out: MIC value in μg/ml.
The mark [28] stands for this setting: Streptococcus pyogenes, 12384, read-out: MIC value in μg/ml.
[29] abbreviates: Proteus vulgaris, 17028, read-out: MIC value in μg/ml.
Where [30] appears, read: Morganella morganii, 18, read-out: MIC value in μg/ml.
Setting [31] is: Proteus mirabilis, 2311, read-out: MIC value in μg/ml.
Where [32] appears, read: Staphylococcus aureus, 3349, read-out: MIC value in μg/ml.
Where [33] appears, read: Staphylococcus aureus, 3356, read-out: MIC value in μg/ml.
Setting [34] is: 209P, read-out: MIC value in μg/ml.
Setting [35] is: Morganella morganii, 69, read-out: MIC value in μg/ml.
The mark [36] stands for this setting: Streptococcus pyogenes, 12334, read-out: MIC value in μg/ml.
Setting [37] is: Proteus mirabilis, 682, read-out: MIC value in μg/ml.
Setting [38] is: Staphylococcus albus, 12228, read-out: MIC value in μg/ml.
Where [39] appears, read: Proteus mirabilis, 2255, read-out: MIC value in μg/ml.
The mark [40] stands for this setting: Proteus vulgaris, 16868, read-out: MIC value in μg/ml.
Setting [41] is: Staphylococcus aureus, 13709, read-out: MIC value in μg/ml.
Where [42] appears, read: Escherichia coli, 01, read-out: MIC value in μg/ml.

Regarding `CCOP(=O)(OCC)ON=C(C(=O)NC1C(=O)N2C(C(=O)O)=C(COC(C)=O)CSC12)c1csc(N)n1` (stereo not drawn) [ES 643, 7β-[2-(2-Aminothiazol-4-yl)-2-diethylphosphoryloxyiminoacetamido] cephalosporanic acid], the MIC was 0.8 µg/mL (≈ 1.39 µM) in test [1] (setting [23]); 0.8 µg/mL (≈ 1.39 µM) in test [2] (setting [24]); 1.6 µg/mL (≈ 2.77 µM) in [3] (setting [25]); 1.6 µg/mL (≈ 2.77 µM) in test [4] (setting [26]); 0.8 µg/mL (≈ 1.39 µM) in [5] (setting [27]); < 0.1 µg/mL in [6] (setting [28]). For the same compound, the MIC is 0.2 µg/mL (≈ 0.346 µM) in test [7] (setting [29]); 1.6 µg/mL (≈ 2.77 µM) in test [8] (setting [30]); < 0.1 µg/mL in test [9] (setting [31]); 1.6 µg/mL (≈ 2.77 µM) in test [10] (setting [32]); 1.6 µg/mL (≈ 2.77 µM) in test [11] (setting [33]); 3.1 µg/mL (≈ 5.37 µM) in test [12] (setting [34]). Also, the MIC in test [13] (setting [35]) is 0.2 µg/mL (≈ 0.346 µM); in [14] (read-out: MIC value in μg/ml), 0.8 µg/mL (≈ 1.39 µM); in test [15] (setting [36]), < 0.1 µg/mL; in test [16] (setting [37]), < 0.1 µg/mL; in [17] (setting [38]) it was 1.6 µg/mL (≈ 2.77 µM); in [18] (setting [39]), < 0.1 µg/mL. Besides, the MIC in [19] (setting [40]) was 0.2 µg/mL (≈ 0.346 µM); in [20] (setting [41]), 3.1 µg/mL (≈ 5.37 µM); in test [21] (setting [42]), 0.2 µg/mL (≈ 0.346 µM).
Take `CC(=O)OCC1=C(C(=O)O)N2C(=O)C(NC(=O)C(=NOP(=O)(N3CCOCC3)N3CCOCC3)c3csc(N)n3)C2SC1` (stereo not drawn) [ES 656, 7β-[2-(2-amino-thiazol-4-yl)-2-dimorpholinophosphoryloxyiminoacetamido] cephalosporanic acid]: the MIC in [1] (Staphylococcus albus, S. albus 3348, read-out: MIC value) is 0.2 µg/mL (≈ 0.303 µM); in [2] (Escherichia coli, E. coli 04, read-out: MIC value) it was 0.2 µg/mL (≈ 0.303 µM); in test [3] (Staphylococcus albus, S. albus 3578, read-out: MIC value) it was 0.2 µg/mL (≈ 0.303 µM); in test [4] (K. pneumoniae K8, read-out: MIC value) it was 0.4 µg/mL (≈ 0.606 µM); in test [5] (Proteus vulgaris, P. vulgaris 5209, read-out: MIC value), 50 µg/mL (≈ 75.8 µM); in test [6] (Streptococcus pyogenes, S. pyogenes 12384, read-out: MIC value), < 0.1 µg/mL. The MIC in [7] (Proteus vulgaris, P. vulgaris 17028, read-out: MIC value) was found to be 25 µg/mL (≈ 37.9 µM); in [8] (Morganella morganii, P. morganii 18, read-out: MIC value), 1.6 µg/mL (≈ 2.43 µM); in test [9] (Proteus mirabilis, P. mirabilis 2311, read-out: MIC value), 0.2 µg/mL (≈ 0.303 µM); in [10] (Staphylococcus aureus, S. aureus 3349*, penicillin-resistant strain, read-out: MIC value) it was 0.4 µg/mL (≈ 0.606 µM); in test [11] (Staphylococcus aureus, S. aureus 3356*, penicillin-resistant strain, read-out: MIC value), 0.2 µg/mL (≈ 0.303 µM); in test [12] (S. aureus 209P, read-out: MIC value), 0.2 µg/mL (≈ 0.303 µM). The MIC in test [13] (Morganella morganii, P. morganii 69, read-out: MIC value) is 3.1 µg/mL (≈ 4.7 µM); in [14] (K. edwardsii K1, read-out: MIC value), 1.6 µg/mL (≈ 2.43 µM); in test [15] (Streptococcus pyogenes, S. pyogenes 12334, read-out: MIC value), < 0.1 µg/mL; in test [16] (Proteus mirabilis, P. mirabilis 682, read-out: MIC value) it was < 0.1 µg/mL; in test [17] (Staphylococcus albus, S. albus 12228, read-out: MIC value), 0.2 µg/mL (≈ 0.303 µM); in test [18] (Proteus mirabilis, P. mirabilis 2255, read-out: MIC value) it was 0.2 µg/mL (≈ 0.303 µM). For the same compound, the MIC is 12.5 µg/mL (≈ 18.9 µM) in [19] (Proteus vulgaris, P. vulgaris 16868, read-out: MIC value); 0.2 µg/mL (≈ 0.303 µM) in test [20] (Staphylococcus aureus, S. aureus 13709, read-out: MIC value); < 0.1 µg/mL in test [21] (Escherichia coli, E. coli 01, read-out: MIC value).
As for `COP(=O)(OC)ON=C(C(=O)NC1C(=O)N2C(C(=O)O)=C(COC(C)=O)CSC12)c1csc(N)n1` (stereo not drawn) [ES 671, 7β-[2-(2-amino-thiazol-4-yl)-2-dimethylphosphoryloxyiminoacetamido] cephalosporanic acid], the MIC is 0.8 µg/mL (≈ 1.46 µM) in test [1] (setting [23]); 0.4 µg/mL (≈ 0.728 µM) in [2] (setting [24]); 0.8 µg/mL (≈ 1.46 µM) in test [3] (setting [25]); 0.4 µg/mL (≈ 0.728 µM) in test [4] (setting [26]); 0.2 µg/mL (≈ 0.364 µM) in test [5] (setting [27]); < 0.1 µg/mL in [6] (setting [28]). The MIC in [7] (setting [29]) was < 0.1 µg/mL; in test [8] (setting [30]), < 0.1 µg/mL; in [9] (setting [31]), < 0.1 µg/mL; in [10] (setting [32]) it was 1.6 µg/mL (≈ 2.91 µM); in [11] (setting [33]), 1.6 µg/mL (≈ 2.91 µM); in test [12] (setting [34]), 3.1 µg/mL (≈ 5.64 µM). Besides, the MIC in test [13] (setting [35]) is 0.4 µg/mL (≈ 0.728 µM); in test [14] (read-out: MIC value in μg/ml), 0.2 µg/mL (≈ 0.364 µM); in test [15] (setting [36]), < 0.1 µg/mL; in test [16] (setting [37]), < 0.1 µg/mL; in [17] (setting [38]), 0.4 µg/mL (≈ 0.728 µM); in test [18] (setting [39]), 0.1 µg/mL (≈ 0.182 µM). Besides, the MIC in [19] (setting [40]) is < 0.1 µg/mL; in test [20] (setting [41]), 1.6 µg/mL (≈ 2.91 µM); in test [21] (setting [42]), 0.2 µg/mL (≈ 0.364 µM).
For the compound `COP(=O)(O)ON=C(C(=O)NC1C(=O)N2C(C(=O)O)=C(COC(C)=O)CSC12)c1csc(N)n1` (stereo not shown) [Example 8b], the MIC in test [22] worked out at 0.2 µg/mL (≈ 0.374 µM).
